The results in this text go back to patent publication US20230203095A1, “BIOLOGICAL PEPTIDE FOR TREATING LUNG DISEASES AND APPLICATION THEREOF” (SHANGHAI INSTITUTE OF PHARMACEUTICAL INDUSTRY CO., LTD., priority 2019, published 2023).

One data set deals with COPD model rats. In words: Lung function (200 ms pulmonary ventilation) in smoking + LPS COPD model rats. It counts as in vivo, SD rats. The note with it: 5 mg/kg body weight/day, aerosol, once a day for 4 weeks.
Data set [1] is described as follows: Stability of each 7-peptide compound in rat whole blood. It counts as in vitro ADME. To be noted: rat whole blood, 37° C., 1000 ng/mL, read-out: Recovery rate (%) M±SD. The protocol: Preparation of the test product: SP and SIPI-D00 were dissolved and diluted with an appropriate amount of 50% acetonitrile water containing 0.1% formic acid to obtain a working solution with a concentration of 200 µg/mL.
• 1) Fresh rat whole blood was added to the EP tube, and shaken gently to mix well; • 2) The EP tube was pre-incubated in a 37° C. water bath for 5 minutes; • 3) Each compound was added to start the reaction and continued to incubate at 37° C.; • 4) 50 µL sample was taken from the sample tube at 0, 2 min, 5 min, 10 min, 30 min, and 60 min, respectively, into the stop tube, 50 µL of ice-cold 7% perchloric acid was added, and shaken to stop the reaction; • 5) Sample was centrifuged at 13000 r/min for 10 min, 75 µL supernatant was aspirated, 60 µL1.25% ammonia water was added and mixed well. After filtered with […] microporous membrane, 20 µL sample was taken for LC-MS/MS analysis.

Data set [2] can be described thus: Plasma drug concentrations and pharmacokinetics after a single subcutaneous injection of SP peptide or SIPI-D00 peptide in SD rats. It counts as in vivo. The protocol:
Route: Single back subcutaneous injection;
Dosage of the drug: SP peptide and SIPI-D00 peptide were prepared into 3.33 mg/mL solution with normal saline, the dosage of SP peptide by back subcutaneous injection was 10 mg/kg body weight, and the dosage of SIPI-D00 peptide by back subcutaneous injection was 5 mg/kg body weight. […]

Data set [3] relates to ConA-stimulated mouse splenocytes. The data set is described as follows: Secretion of IL-4 from mouse splenocytes stimulated by ConA (ELISA). The note with it: for IL-4 levels of polypeptides: ConA 5 µg/mL, 24 h. It counts as cell-based, BALB/C mice. The protocol: (§1) Three BALB/C mice were sacrificed by cervical dislocation after anesthesia. Then mice were immersed in 75% ethanol for 5 minutes. After dissection and spleen extraction, spleen lymphocytes were prepared. […] Different concentrations of test substances were added to each well, and duplicate wells were set for each concentration, and the final concentration of ConA was 5 µg/mL. The plate was incubated in a 37° C. 5% CO2 incubator for 24 h, the drug-containing cell suspension was aspirated from each well, then centrifuged at 200 g for 15 min at 4° C. The supernatant was taken, and mouse IL-4 Elisa kit was used to detect IL- 4 content.
as §1, with “each concentration was” for “duplicate wells were”, “up as triple wells,” for “for each concentration,”, “kit (mouse IL-4 Elisa kit)” for “kit”

The next data set concerns serum IgE. The data set is described as follows: Serum IgE level in OVA-induced allergic asthma model mice. It counts as in vivo, BALB/c mice. To be noted: days 19-28, n=10. On the procedure: (§2) The first batch: mice were divided into groups, 10 mice in each group, namely: blank control group (normal saline), model group (OVA, 20 ug/mouse), SP peptide group (administered dose of 175 µg/kg body weight/day, 350 µg/kg body weight/day, respectively), SIPI-D00 peptide group (administered dose of 175 µg/kg body weight/day, 350 µg/kg body weight/day), and dexamethasone group (administered dose of 2 mg/kg body weight/day).
OVA for sensitization was dissolved in sterile PBS solution at a final concentration of 0.2 mg/mL, then an equal volume of aluminum hydroxide adjuvant was added. After shaking for 30 minutes, each mouse was intraperitoneally injected with 0.2 mL (20 µg OVA per mouse).
2% OVA solution was prepared in sterile PBS. The 2% OVA was nebulized with a nebulizer, and the mice were placed in the nebulizer inhalation box for 30 minutes per day.
According to the dosage, SP peptide and SIPI-D00 were dissolved in normal saline respectively, and administered by subcutaneous administration on the back according to the body weight of the animals.
(§3) Mice in the model group, SP peptide group, SIPI-D00 peptide group and dexamethasone group were sensitized by intraperitoneal injection of OVA (20 µg OVA/mice) on day 0, 7, and 14, and challenged by aerosol administration of OVA (once a day for 5 consecutive days) on day 21-25 to construct asthmatic model animals. Mice in the model group were given normal saline on days 21-28; mice in different doses of SP peptide group and SIPI-D00 peptide group were injected subcutaneously with different doses of SP and SIPI-D00 on days 19-28; mice in dexamethasone group were injected intraperitoneally with 2 mg/kg/day dexamethasone on days 21-28. At the same time, 10 mice in the blank control group were fed normally from day 0 to day 28 without any treatment, and were given normal saline as a blank control.
After 28 days, blood was collected from the inner canthus of the mouse, and the serum was collected, and the IgE level in the serum was measured with an ELISA kit. […]
(§4) At the same time, 10 mice in the blank control group were fed normally from day 0 to day 28 without any treatment, and were given normal saline as a blank control.

Data set [4] deals with OVA-induced asthma model mice. In words: Lung pathology (H&E) of OVA-induced asthma model mice. It is filed as in vivo, BALB/c mice. The note with it: after 28 days. On the procedure: as §2, §3
After 28 days, the mouse lung tissue was taken out, fixed in 4% formaldehyde, embedded in paraffin, sectioned, and stained with H&E for pathological observation.
The first batch: mice were divided into groups, 10 mice in each group, namely: blank control group (normal saline), model group (OVA, 20 ug/mice), and SP peptide group (administered dose of 175 µg/kg body weight/day, 350 µg/kg body weight/day, respectively), SIPI-G5 peptide group (administered dose of 175 µg/kg body weight/day, 350 µg/kg body weight/day), dexamethasone group (administered dose of 2 mg/kg body weight/day).
as §4

“And” between values parts separate entries of the source, which are not always exact repeats. Equal values may be shown once. Read-outs that look alike come from different tables or passages of the source.

`CCCC1O[C@@H]2C[C@H]3[C@@H]4CCC5=CC(=O)C=C[C@]5(C)[C@H]4[C@@H](O)C[C@]3(C)[C@]2(C(=O)CO)O1` (some centres unmarked) [Budesonide, budesonide]: in the data set on COPD model rats, the “200 ms pulmonary ventilation” value was found to be 77.17 ± 11.20 mL and the “Percentage of 200 ms pulmonary ventilation (%)” value is listed as 465.8±77.8 %.

Take “H-GQTYTSG-OH [SP, GQTYTSG, reference compound]”: the recovery was determined as 100% in data set [1] (incubation time 0 min); 64.1 ± 7.6% in data set [1] (incubation time 2 min); 41.3 ± 6.8% in data set [1] (incubation time 5 min); 28.5 ± 0.9% in data set [1] (incubation time 10 min); 4.93 ± 0.7% in data set [1] (incubation time 30 min); 1.67 ± 0.5% in data set [1] (incubation time 60 min). In data set [2] (SP peptide 10 mg/kg s.c., SD rats, time 0 min, parallels 1-4), this molecule showed a Plasma concentration of 0 ng/mL. In data set [2] (male, SD, rat, plasma, sc, 10 mg/kg, SP peptide 10 mg/kg s.c., SD rats, time 0.5 min, parallels 1-4, read-out: Plasma concentration), the level at 0.5 min came to 74.2 ng/mL. In addition, in data set [2] (rat, in vivo, sc, 10 mg/kg), the AUC(0-inf) is 11.9 ng·h/mL. The molecule also had an AUC(0-t) in data set [2] (rat, in vivo, sc, 10 mg/kg) of 11.9 ng·h/mL. The highest level in data set [2] (rat, in vivo, sc, 10 mg/kg) (Cmax) was 210 ± 21.6 ng/mL. Further, the half-life in data set [2] (rat, in vivo, sc, 10 mg/kg) came to 8.65 ± 1.79 min. The “Inhibitory rate of polypeptide on IL-4 secretion” value came out at 33.90% in data set [3] (peptide concentration 1 µg/mL), 42.51% in data set [3] (peptide concentration 3 µg/mL), 50.21% in data set [3] (peptide concentration 10 µg/mL) and 52.15% in data set [3] (peptide concentration 30 µg/mL). Also, the “IL-4 levels of polypeptides” value is 14.28 ± 0.51 pg/mL in data set [3] (peptide concentration 1 µg/mL), 12.42 ± 0.34 pg/mL in data set [3] (peptide concentration 3 µg/mL), 10.76 ± 2.55 pg/mL in data set [3] (peptide concentration 10 µg/mL) and 10.34 ± 0.27 pg/mL in data set [3] (peptide concentration 30 µg/mL). Moreover, the “Serum IgE level (OD450)” value with serum IgE (175 ug/kg/day subcutaneous) is 0.634 ± 0.078 OD450 and 0.634 + OD450; in the data set on serum IgE (350 ug/kg/day subcutaneous) it was 0.595 ± 0.041 OD450 and 0.595 + OD450. For the same molecule, the “lung pathology, H&E” value in data set [4] (high-dose group (350 µg/kg body weight/day)) and in data set [4] (low-dose group (175 µg/kg body weight/day)) was “some inflammatory cells are found in the airway mucosa” each time.
